Measured values published in PubChem BioAssay (NCI).
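Briefly, cells in 96-well plates were exposed to five compound concentrations for 48 h, and endpoints were estimated by linear interpolation. GI50 = concentration required for 50% inhibition of growth. TGI: concentration producing complete growth inhibition.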

Key:
Assay in all cases: growth of human tumour cells (NCI), 48 h
ACHN renal = test system: ACHN renal
HCT-15 colon = test system: HCT-15 colon
KM12 colon = test system: KM12 colon
NCI-H522 lung = test system: NCI-H522 lung
SF-268 CNS = test system: SF-268 CNS
SK-MEL-28 melanoma = test system: SK-MEL-28 melanoma
SNB-19 CNS = test system: SNB-19 CNS
SR leukemia = test system: SR leukemia
DLD-1 colon = test system: DLD-1 colon
HCC-2998 colon = test system: HCC-2998 colon
HOP-18 NSCLC = test system: HOP-18 NSCLC

Row | Structure (SMILES) | TGI (ACHN renal) [µM] | TGI (HCT-15 colon) [µM] | TGI (KM12 colon) [µM] | TGI (NCI-H522 lung) [µM] | TGI (SF-268 CNS) [µM] | TGI (SK-MEL-28 melanoma) [µM] | TGI (SNB-19 CNS) [µM] | TGI (SR leukemia) [µM] | TGI (DLD-1 colon) [µM] | TGI (HCC-2998 colon) [µM] | TGI (HOP-18 NSCLC) [µM] | GI50 (ACHN renal) [µM] | GI50 (HCC-2998 colon) [µM] | GI50 (HCT-15 colon) [µM] | GI50 (NCI-H522 lung) [µM] | GI50 (SK-MEL-28 melanoma) [µM] | GI50 (SNB-19 CNS) [µM] | GI50 (SR leukemia) [µM] | GI50 (KM12 colon) [µM] | GI50 (SF-268 CNS) [µM]
1 | O=C(/C=C/c1ccc(O)cc1)NCCc1ccc(O)cc1 | > 12.5 | > 12.5 | > 12.5 | > 12.5 | > 12.5 | > 12.5 | > 12.5 | > 12.5 |  |  |  |  |  |  |  |  |  |  |  | 
2 | COc1cccc(-c2nc3c(C(=O)NCCN(C)C)cccc3[nH]2)c1 |  | 41.6 | > 72 | 34 | > 41.7 | 31.4 | > 100 |  | 63.1 | 30.8 | 62.6 |  |  |  |  |  |  |  |  | 
3 | C[N+]1(C)CCC(C#N)(c2ccccc2)CC1 | > 100 | > 100 | > 100 |  | > 100 | > 100 | > 100 | > 100 |  | > 100 |  |  |  |  |  |  |  |  |  | 
4 | Oc1cc2cccc[n+]2c2cccc(Cl)c12 | 52.5 |  |  |  |  |  |  |  |  |  |  | 21.7 | 52.4 | 49.4 | 94.8 | 21.8 | 92.3 | 67.5 |  | 
5 | CC1(C)COC(/C=C/C2=NC(C)(C)CO2)=N1 | 57.3 | 34.5 | 37.1 | 13.4 | 75.8 | 38.1 | > 100 | 27.3 |  |  |  |  |  |  |  |  |  |  |  | 
6 | CC(C)C(N=Cc1ccccc1O)C(=O)O (stereo not given) | > 100 | > 100 | > 100 | > 100 | > 100 | > 100 | > 100 | > 100 |  |  |  |  |  |  |  |  |  |  |  | 
7 | O=C1/C(=C\c2ccc(-c3ccc(Cl)cc3Cl)o2)SC2N=C(COc3ccc(Cl)cc3)NN12 (stereo not given) | > 100 | > 100 | > 100 | > 100 | > 100 | > 100 | > 100 | > 100 |  | > 100 |  |  |  |  |  |  |  |  |  | 
8 | CC(O)C(O)C(N)CC=O (stereo not given) |  | > 500 | > 500 | > 500 | > 500 | > 500 | > 500 |  | > 500 | > 500 | > 500 |  |  |  |  |  |  |  |  | 
9 | O=C(O)C1CC(c2ccccc2)=NN1c1ccccc1 (stereo not given) | > 100 | > 100 | > 100 | > 100 | > 100 | > 100 | > 100 |  |  | 57.4 |  |  |  |  |  |  |  |  |  | 
10 | CCOC(=O)n1cncc1CC(NC(=O)Cc1c(C(=O)C=C(C)C)[nH]c2ccccc12)C(=O)OC (stereo not given) | 36 | 59.6 | 39.1 | 15.2 | 37.4 | 32.8 | 30.5 | 16.1 |  | 32.2 |  |  |  |  |  |  |  |  |  | 
11 | CN(C)Cc1ccc(C(=O)Nc2ccc3ncnc(Nc4ccc(Oc5cccc(F)c5)c(Cl)c4)c3c2)cc1 | 2.36 | 2.62 | 3.21 |  | 3.28 | 3.09 | 3.09 |  |  | 3.11 |  | 1.15 | 1.67 | 1.25 |  | 1.68 | 1.66 |  | 1.75 | 1.53
12 | Fc1ccc(-c2ccc(-c3nnc(-c4cc(F)c(Cl)cc4Cl)o3)o2)cc1Cl | > 100 | > 100 | 74.1 | > 100 | > 100 | 68.2 | > 100 | > 100 |  | > 100 |  | 35.3 | 41.3 | 27.6 | 38.7 | 24.9 | 25.4 | 68.5 | 26.1 | 33
13 | c1ccc2sc(C3(N4CCCCC4)CCCC3)cc2c1 | 21 | 21.6 | 23.4 | 24.8 | 24.3 | 28.7 | 29.2 | 22.3 |  | 13.5 |  |  |  |  |  |  |  |  |  | 
14 | COc1ccc(SC(C)(SC)c2ccccn2)c(OC)n1 (stereo not given) | > 100 | > 100 | > 100 | > 100 | > 100 | > 100 | > 100 | > 100 |  | > 100 |  |  |  |  |  |  |  |  |  | 
15 | C[C@]12CC(c3ccccc3O1)C(C(=O)NC13CC4CC(CC(C4)C1)C3)C(=O)N2 (stereo not given in full) | > 100 | 60.8 | > 100 | > 100 | 96 | 64 | > 100 |  |  | > 100 |  |  |  |  |  |  |  |  |  | 
16 | CC(=O)OCC1OC(O[C@@H]2c3c(O)c4c(c(O)c3C3=C(NN(c5ccc([N+](=O)[O-])cc5[N+](=O)[O-])[Se]3=O)[C@@]2(C)O)C(=O)c2ccccc2C4=O)C(OC(C)=O)C(OC(C)=O)C1OC(C)=O (stereo not given in full) | 0.607 | 0.873 | 1.58 | 0.29 | 0.555 | 1.02 |  | 0.502 |  | 1.2 |  |  |  |  |  |  |  |  |  | 
17 | O=S(=O)(O)c1c(N=Nc2c(O)ccc3ccccc23)ccc2ccccc12 |  | > 100 | > 100 | > 100 | > 100 | > 100 | > 100 | > 100 |  |  |  |  |  |  |  |  |  |  |  | 
18 | O=C1c2ccccc2-c2ccc(N=[N+]([O-])c3ccc4c(c3)C(=O)c3ccccc3-4)cc21 | > 100 | > 100 | > 100 | > 100 | > 100 | > 100 | > 100 |  |  | > 100 |  |  |  |  |  |  |  |  |  | 
19 | COC(=O)C1=CC[C@@H]2C(C(=O)O)=CO[C@@H](OC3OC(CO)C(O)C(O)C3O)[C@H]12 (stereo not given in full) |  | > 300 | > 300 | > 300 | > 300 | > 300 | > 300 |  | > 189 | > 300 | > 300 |  |  |  |  |  |  |  |  | 
20 | C=C1C(=O)OC2C1C(OC(=O)/C(C)=C/C)CC1(C)C(=O)CCC(=C)C21 (stereo not given) | 8.23 | 10.3 | 32 | 7.63 | 33.4 | > 42.8 |  | > 28 |  | 26.6 |  |  |  |  |  |  |  |  |  | 
21 | N#C/C=C1\C=CC(O)C(O)C1OC1OC(CO)C(O)C(O)C1O (stereo not given) | > 100 | > 100 | > 100 | > 100 | > 100 | > 100 | > 100 |  |  | > 100 |  |  |  |  |  |  |  |  |  | 
